These results are taken from patent US9481662B2, “Seriniquinones, melanoma-specific anticancer agents” (The Regents of the University of California, priority 2012, dated 2016).

One may read the IC50 as the midpoint of a concentration-inhibition curve.

One experiment concerns DCD-1L. Put plainly: Covalent labeling of DCD-1L peptide (fluorescent band on SDS-PAGE). It counts as binding, human. Conditions: 50 μM, PBS pH 7.2, 5% DMSO, 23° C., 24 h (FIG. 5E). An excerpt:
FIGS. 5A-5E: Seriniquinone (1) targets dermcidin (DCD). […] Sequence listing (FIG. 5B): […] (SEQ ID NO:3); […] (SEQ ID NO:4).
The reactivity between 1 and DCD was then examined. […] These studies now provided initial support for the formation of a unique trimeric covalent adduct, compound 15, between 1, DCD and targeted proteins such as GADPH.

The test system of experiment [1] is HCT-116 cells. In words: Confocal microscopy subcellular localization. It counts as cell-based, human. Particulars: confocal imaging with counterstains. As for the experimental part:
Confocal studies were conducted on a LSM 710 inverted confocal microscope (Zeiss) with scanning module with 3 detection channels, Plan-Apochromat 63×/1.4 na objective, diode laser (405 nm, CW pulsed, 30 mW), Ar-laser (458 nm, 488 nm, 514 nm, 25 mW), HeNe-laser (543 nm, 1 mW) and HeNe-laser (633 nm, 5 mW). For all procedures, cells were seeded 24 h prior to treatment, to allow for adequate attachment to the well or flask bottom. Cells were plated in glass-bottom dishes (MatTek Corporation) for microscopic analyses at 1×10^5 cells/mL. Compounds were added to cells under 1 mL of media from […] such that the DMSO content remained under 0.1%. […]
Colocalization studies were conducted by treating cells (HCT-116 or MALME-3M) at a density of 1×10^5 cells/cm^2 in a 35 mm glass-bottom dish (MatTek Corporation). […] After 30 min, cells were washed PBS (4×1 mL) and immediately analyzed by confocal microscope. […] The localization of seriniquinone (1) was acquired by red fluorescence with emission at 550-631 nm, while the ER-tracker was acquired by blue florescence with emission at 406-450 nm. […] After 15 min, cells were washed PBS (4×1 mL) and immediately analyzed by confocal microscope. […] The localization of seriniquinone (1) was acquired by red fluorescence with emission at 550-631 nm, while the ER-tracker was acquired by blue florescence with emission at 415-530 nm.

In experiment [2] the test system is HCT-116 cells. Put plainly: Cytotoxicity analysis (MTT/MTS) in HCT-116 colon carcinoma cells. It is filed as cell-based, human. Conditions: Homo sapiens; HCT-116 cells; read-out: IC50. The text has this:
Fortunately, 1 was fluorescent with excitation maxima at 250 nm (ε=20,800 cm^−1M^−1), 289 nm (ε=24,000 cm^−1M^−1) and 342 nm (ε=6900 cm^−1M^−1) and a broad emission from 490-680 nm. Using confocal microscopy, red and green fluorescence from 1 appeared in HCT-116 cells within minutes of addition (FIG. 3A). […] Time course confocal imaging studies were then combined with conventional activity MTT assays^6 to provide a detailed correlation between cellular localization and cytostatic activity.
HCT-116 colon carcinoma cells were plated in 96-well plates at 2.5×10^4 cells/well. After 24 h, the cultures were treated with a single concentration seriniquinone (1) within the range of 0.02-20.0 μM, etoposide (positive control) in the range of 0.05-50 μM or 1% DMSO (negative control). The cells were incubated for either 24 h, 48 h or 72 h. At the end of the incubation period, cultures were added with 3-(4,5-dimethylthiazol-2-yl)-5-(3-carboxymethoxyphenyl)-2-(4-sulfophenyl)-2H-tetrazolium (MTS) for 3 h. Cell viability was quantified by the ability of living cells to reduce the yellow MTS dye to a purple formazan product. Time course experiments were also conducted in HCT-116 cells. Cells were exposed to 1 over short periods (1 h, 3 h, 6 h, and 9 h) followed by incubation in drug-free media to complete a total of 24 h incubation before addition of MTS.

The target of another experiment is T1, dermcidin (DCD) (Homo sapiens, UniProt P81605).
T1 construct: endogenous in cells; host or cells: HCT-116 cell lysate
T1 sequence (P81605 20-110): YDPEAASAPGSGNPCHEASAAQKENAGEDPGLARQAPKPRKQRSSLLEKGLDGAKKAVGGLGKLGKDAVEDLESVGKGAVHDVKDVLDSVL
In words: Immunoprecipitation with IAF probe and LC-MS/MS target identification. It counts as binding. Particulars: HCT-116 cell lysates, iodoacetamide treatment. Here is the method:
Using established protocols,^13 HCT-116 cell lysates were treated for 8 h with probe 13 and immunoprecipitated with resins bearing a covalently-attached anti-IAF mAb.^14 Over multiple repetitions, a series of proteins ranging from 30-250 kDa were obtained in a manner dependent on the concentration probe 13 (FIG. 5A). […] Trypsin digestion coupled with LC-MS/MS analyses was then applied to identify the proteins in the more abundant bands. […] In addition to peptides from GADPH, peptides were also found in the 50 kDa band (b1, FIG. 5A) that corresponded to the 30 aa PIF core, 13 aa propeptide, and 47 aa DCD-1 peptide region of dermcidin (DCD) (FIG. 5B).
Interested if this was the case in this experimentation, the immunoprecipitated fractions were treated with 5 mM iodoacetamide prior to gel analysis. As indicated (Lane L1, FIG. 5C), a low molecular weight band corresponding to DCD appeared.
An 1 mg/mL stock of probe 14a/14b in DMSO solution was added to 1 mL of cell lysate containing ˜1 mg/mL in net protein to provide a net concentration of 3 μM 14a/14b or 30 μM 14a/14b. […]
Silver Stained bands were excised from the polyacrylamide gel and destained. […] General procedure was using in-gel trypsin digest and then the trypsin-digested peptides were analyzed by liquid chromatography LC-MS/MS with electrospray ionization. […]

As for `CN(C)c1ccc2c(CC(=O)NCCCCCCNC(=O)CCc3ccc4c(=O)c5c(sc6c(=O)c7ccccc7c(=O)c65)c(=O)c4c3)cc(=O)oc2c1` [Probe 13, N-(6-(2-(7-(dimethylamino)-2-oxo-2H-chromen-4-yl)acetamido)hexyl)-3-(5,7,12,13-tetraoxo-5,7,12,13-tetrahydrodinaphtho[2,3-b:2′,3′-d]thiophen-3-yl)propanamide], the “fluorescent labeling of DCD-1L fragment” value with DCD-1L is “fluorescent bands corresponding to DCD-1L”. Moreover, the subcellular localization entry in the experiment on HCT-116 cells [1] was “rapid uptake in the ER followed by transport into autophagosomes”. Besides, in the experiment with HCT-116 cells [2], the IC50 came out at 0.25 ± 0.08 µM. The “protein target identified by immunoprecipitation” value at dermcidin (DCD) is on record as “DCD was indeed a primary target”.
